Data as given in patent US9060515B2, “Heterocyclic urea compounds” (BIOTA EUROPE LTD, priority 2011, dated 2015).
Converted amounts (≈) assume the structure as drawn.

Tests used:
Format in all cases: cell-based
S. aureus (ATCC 29213) = assay: Antibacterial susceptibility testing (MIC, broth microdilution or agar dilution), S. aureus; details: Staphylococcus aureus, ATCC29213; read-out: S. aureus (ATCC 29213) minimal inhibitory concentration (MIC)
Summary of the method: (§1)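 MICs by CLSI (M7-A7) broth microdilution or agar dilution, against reference ATCC strains as listed.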

S. pyogenes (ATCC 51339) = assay: Antibacterial susceptibility testing (MIC, broth microdilution or agar dilution), S. pyogenes; details: Streptococcus pyogenes, ATCC51339; read-out: S. pyogenes (ATCC 51339) minimal inhibitory concentration (MIC)
Summary of the method: as §1

E. faecalis (ATCC 29212) = assay: Antibacterial susceptibility testing (MIC, broth microdilution or agar dilution), E. faecalis; details: Enterococcus faecalis, ATCC29212; read-out: E. faecalis (ATCC 29212) minimal inhibitory concentration (MIC)
Summary of the method: as §1

[1] = tested on: H. influenzae (ATCC 49247); assay: Antibacterial susceptibility testing (MIC, broth microdilution or agar dilution), H. influenzae; details: Haemophilus influenzae, ATCC49247; read-out: H. influenzae (ATCC 49247) minimal inhibitory concentration (MIC)
Procedure: Compounds of the invention were tested for antimicrobial activity by susceptibility testing in liquid or on solid media. MICs for compounds against each strain were determined by the broth microdilution or agar dilution method according to the guidelines of the Clinical Laboratories and Standards Institute, formerly the National Committee for Clinical Laboratory Standards (Clinical Laboratories and Standards Institute. Methods for Dilution Antimicrobial Susceptibility Tests for Bacteria That Grow Aerobically; Approved Standard—Seventh Edition. Document M7-A7. CLSI, Wayne, Pa., 2006; Clinical Laboratories and Standards Institute. The Gram positive bacterial strains tested include S. aureus (Staphylococcus aureus (Isolate ID ATCC 29213)), E. faecalis (Enterococcus faecalis (Isolate ID ATCC 29212)) and S. pyogenes (Streptococcus pyogenes (Isolate ID ATCC 51339)). The Gram negative bacterial strains tested include H. influenzae (Haemophilus influenzae (Isolate ID ATCC 49247)).

| Compound | MIC (S. aureus (ATCC 29213)) [µg/mL] | MIC (S. pyogenes (ATCC 51339)) [µg/mL] | MIC (E. faecalis (ATCC 29212)) [µg/mL] | MIC [1] [µg/mL] |
| --- | --- | --- | --- | --- |
| CCNC(=O)Nc1cc(Nc2cncc(F)c2)c(C(=O)Nc2ccc(CCC(=O)O)cc2)cn1 [Compound 236] | 4 (≈ 8.57 µM) | – | ≤ 1 | 4 (≈ 8.57 µM) |
| CCNC(=O)Nc1cc(Nc2ccnc(OC)c2)c(C(=O)Nc2ccc(CC(C)(C)C(=O)O)cc2)cn1 [Compound 187, 3-{4-[({6-[(ethylcarbamoyl)amino]-4-[(2-methoxypyridin-4-yl)amino]pyridin-3-yl}carbonyl)amino]phenyl}-2,2-dimethylpropanoic acid] | ≤ 1 | – | ≤ 1 | ≤ 1 |
| CCNC(=O)Nc1cc(Nc2ccc(C#N)cc2)c(C(=O)Nc2ccc(CN3CCOCC3)cc2)cn1 [Compound 204, 4-[(4-cyanophenyl)amino]-6-[(ethylcarbamoyl)amino]-N-[4-(morpholin-4-ylmethyl)phenyl]pyridine-3-carboxamide] | ≤ 1 | – | ≤ 1 | 4 (≈ 8.01 µM) |
| CCNC(=O)Nc1cc(Nc2ccc(C#N)cc2)c(C(=O)Nc2ccc(CC(C)(C)C(=O)O)cc2)cn1 [Compound 188, 3-{4-[({4-[(4-cyanophenyl)amino]-6-[(ethylcarbamoyl)amino]pyridin-3-yl}carbonyl)amino]phenyl}-2,2-dimethylpropanoic acid] | ≤ 1 | ≤ 1 | ≤ 1 | ≤ 1 |
| CCNC(=O)Nc1cc(Nc2ccccc2)c(C(=O)Nc2ccc(NS(C)(=O)=O)cc2)cn1 [Compound 232, 6-[(ethylcarbamoyl)amino]-N-{4-[(methylsulfonyl)amino]phenyl}-4-(phenylamino)pyridine-3-carboxamide] | 2 (≈ 4.27 µM) | – | ≤ 1 | 4 (≈ 8.54 µM) |
| CCNC(=O)Nc1cc(Nc2cc(Cl)cc(Cl)c2)c(C(=O)Nc2ccc(CCC(=O)O)cc2)cn1 [Compound 228, 3-{4-[({4-[(3,5-dichlorophenyl)amino]-6-[(ethylcarbamoyl)amino]pyridin-3-yl}carbonyl)amino]phenyl}propanoic acid] | ≤ 1 | ≤ 1 | ≤ 1 | ≤ 1 |
| CCNC(=O)Nc1cc(Nc2cc(F)cc(F)c2)c(C(=O)Nc2ccc(CCC(=O)O)cc2)cn1 [Compound 235, 3-{4-[({4-[(3,5-difluorophenyl)amino]-6-[(ethylcarbamoyl)amino]pyridin-3-yl}carbonyl)amino]phenyl}propanoic acid] | ≤ 1 | ≤ 1 | ≤ 1 | 4 (≈ 8.27 µM) |
| CCNC(=O)Nc1cc(Nc2cc(F)cc(F)c2)c(C(=O)Nc2ccc(CC(C)(C)C(=O)O)cc2)cn1 [Compound 239, 3-{4-[({4-[(3,5-difluorophenyl)amino]-6-[(ethylcarbamoyl)amino]pyridin-3-yl}carbonyl)amino]phenyl}-2,2-dimethyl propanoic acid] | ≤ 1 | – | ≤ 1 | ≤ 1 |
| CCNC(=O)Nc1cc(Nc2ccc(F)c(C)c2)c(C(=O)Nc2ccc(CCC(=O)O)cc2)cn1 [Compound 223, 3-{4-[({6-[(ethylcarbamoyl)amino]-4-[(4-fluoro-3-methylphenyl)amino]pyridin-3-yl}carbonyl)amino]phenyl}propanoic acid] | ≤ 1 | – | ≤ 1 | ≤ 1 |
| CCNC(=O)Nc1cc(Nc2ccccc2)c(C(=O)Nc2ccc(CS(=O)(=O)NC)cc2)cn1 [Compound 210, 6-[(ethylcarbamoyl)amino]-N-{4-[(methylsulfamoyl)methyl]phenyl}-4-(phenylamino)pyridine-3-carboxamide] | 2 (≈ 4.14 µM) | – | ≤ 1 | 4 (≈ 8.29 µM) |

Next, values leading:

| MIC (S. aureus (ATCC 29213)) [µg/mL] | MIC (S. pyogenes (ATCC 51339)) [µg/mL] | MIC (E. faecalis (ATCC 29212)) [µg/mL] | MIC [1] [µg/mL] | Compound |
| --- | --- | --- | --- | --- |
| ≤ 1 | ≤ 1 | ≤ 1 | ≤ 1 | CCNC(=O)Nc1cc(Nc2cc(F)c(F)c(F)c2)c(C(=O)Nc2ccc(CCC(=O)O)cc2)cn1 [Compound 189] |
| ≤ 1 | ≤ 1 | ≤ 1 | ≤ 1 | CCNC(=O)Nc1cc(Nc2ccc(Cl)cc2F)c(C(=O)Nc2ccc(CCC(=O)O)cc2)cn1 [Compound 224, 3-{4-[({4-[(4-chloro-2-fluorophenyl)amino]-6-[(ethylcarbamoyl)amino]pyridin-3-yl}carbonyl)amino]phenyl} propanoic acid] |
| ≤ 1 | ≤ 1 | ≤ 1 | ≤ 1 | CCNC(=O)Nc1cc(Nc2ccc(F)c(F)c2)c(C(=O)Nc2ccc(CCC(=O)O)cc2)cn1 [Compound 220, 3-{4-[({4-[(3,4-difluorophenyl)amino]-6-[(ethylcarbamoyl)amino]pyridin-3-yl}carbonyl)amino]phenyl}propanoic acid] |
| ≤ 1 | ≤ 1 | ≤ 1 | ≤ 1 | CCNC(=O)Nc1cc(Nc2ccc(C(=O)OC)cc2)c(C(=O)Nc2ccc(CC(C)(C)C(=O)O)cc2)cn1 [Compound 196] |
| ≤ 1 | ≤ 1 | ≤ 1 | ≤ 1 | CCNC(=O)Nc1cc(Nc2cccc(F)c2)c(C(=O)Nc2ccc(CCC(=O)O)cc2)cn1 [Compound 221, 3-{4-[({6-[(ethylcarbamoyl)amino]-4-[(3-fluorophenyl)amino]pyridin-3-yl}carbonyl)amino]phenyl}propanoic acid] |
| ≤ 1 | ≤ 1 | ≤ 1 | ≤ 1 | CCNC(=O)Nc1cc(Nc2ccc(F)c(Cl)c2)c(C(=O)Nc2ccc(CCC(=O)O)cc2)cn1 [Compound 229, 3-{4-[({4-[(3-chloro-4-fluorophenyl)amino]-6-[(ethylcarbamoyl)amino]pyridin-3-yl}carbonyl)amino]phenyl}propanoic acid] |
| ≤ 1 | ≤ 1 | ≤ 1 | ≤ 1 | CCNC(=O)Nc1cc(Nc2cccc(F)c2)c(C(=O)Nc2ccc(CC(C)(C)C(=O)O)cc2)cn1 [Compound 181, 3-{4-[({6-[(ethylcarbamoyl)amino]-4-[(3-fluorophenyl)amino]pyridin-3-yl}carbonyl)amino]phenyl}-2,2-dimethylpropanoic acid] |
| ≤ 1 | – | ≤ 1 | ≤ 1 | CCNC(=O)Nc1cc(Nc2cc(F)cc(F)c2)c(C(=O)Nc2ccc(C3CC3C(=O)O)cc2)cn1 (stereo not shown) [Compound 238, 2-{4-[({4-[(3,5-difluorophenyl)amino]-6-[(ethylcarbamoyl)amino]pyridin-3-yl}carbonyl)amino]phenyl}cyclopropanecarboxylic acid] |
